Biological target: Epidermal growth factor receptor (Homo sapiens) (UniProt P00533)
Test: Tested for inhibitory activity against Epidermal growth factor receptor

Sequence of Epidermal growth factor receptor (Homo sapiens) (P00533 whole entry, looked up): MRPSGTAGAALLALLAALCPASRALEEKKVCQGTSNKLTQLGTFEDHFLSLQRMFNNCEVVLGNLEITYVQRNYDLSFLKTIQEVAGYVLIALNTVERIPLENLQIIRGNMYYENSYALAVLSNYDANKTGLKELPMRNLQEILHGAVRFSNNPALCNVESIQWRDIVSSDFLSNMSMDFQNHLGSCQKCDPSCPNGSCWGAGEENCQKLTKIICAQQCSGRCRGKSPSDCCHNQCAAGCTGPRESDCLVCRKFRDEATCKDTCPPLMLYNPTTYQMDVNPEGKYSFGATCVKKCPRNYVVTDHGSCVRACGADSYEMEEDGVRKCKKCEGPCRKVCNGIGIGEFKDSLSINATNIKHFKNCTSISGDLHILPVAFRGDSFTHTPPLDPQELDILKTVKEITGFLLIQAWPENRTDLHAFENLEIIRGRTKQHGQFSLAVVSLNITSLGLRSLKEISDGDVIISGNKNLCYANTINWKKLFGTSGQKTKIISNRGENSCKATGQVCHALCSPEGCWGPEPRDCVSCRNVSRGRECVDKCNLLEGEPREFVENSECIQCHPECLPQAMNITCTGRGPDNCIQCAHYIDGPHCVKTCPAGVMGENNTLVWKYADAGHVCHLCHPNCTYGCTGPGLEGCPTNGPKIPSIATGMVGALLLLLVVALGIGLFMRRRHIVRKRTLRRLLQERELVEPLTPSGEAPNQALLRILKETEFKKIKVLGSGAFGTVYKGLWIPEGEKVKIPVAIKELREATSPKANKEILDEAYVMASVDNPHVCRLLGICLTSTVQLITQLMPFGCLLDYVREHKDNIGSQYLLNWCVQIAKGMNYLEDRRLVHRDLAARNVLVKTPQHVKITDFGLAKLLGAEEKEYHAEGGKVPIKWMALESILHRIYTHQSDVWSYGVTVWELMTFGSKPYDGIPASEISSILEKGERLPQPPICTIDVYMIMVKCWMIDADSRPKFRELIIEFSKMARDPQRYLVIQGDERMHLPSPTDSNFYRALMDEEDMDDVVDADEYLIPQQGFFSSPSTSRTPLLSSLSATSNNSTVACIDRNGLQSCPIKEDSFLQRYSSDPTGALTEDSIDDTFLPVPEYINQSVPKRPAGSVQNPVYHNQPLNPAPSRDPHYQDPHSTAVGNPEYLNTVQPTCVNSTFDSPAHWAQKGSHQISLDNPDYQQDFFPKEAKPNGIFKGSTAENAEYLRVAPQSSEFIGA

IC50 | SMILES
400 nM | CN(C)C(=O)CN1CCC(n2cc(-c3cccc(O)c3)c3c(N)ncnc32)CC1 [2-{4-[4-Amino-5-(3-hydroxy-phenyl)-pyrrolo[2,3-d]pyrimidin-7-yl]-piperidin-1-yl}-N,N-dimethyl-acetamide]
290 nM | COC(=O)CN1CCC(n2cc(-c3cccc(O)c3)c3c(N)ncnc32)CC1 [{4-[4-Amino-5-(3-hydroxy-phenyl)-pyrrolo[2,3-d]pyrimidin-7-yl]-piperidin-1-yl}-acetic acid methyl ester]
360 nM | Nc1ncnc2c1c(-c1cccc(O)c1)cn2C1CCN(CCO)CC1 [3-(4-amino-7-(1-(2-hydroxyethyl)piperidin-4-yl)-7H-pyrrolo[2,3-d]pyrimidin-5-yl)phenol]

Further lines, the compound ahead of its results:

SMILES | IC50
COc1cccc(-c2cn(C3CCN(CCN(C)CCO)CC3)c3ncnc(N)c23)c1 [2-((2-(4-(4-amino-5-(3-methoxyphenyl)-7H-pyrrolo[2,3-d]pyrimidin-7-yl)piperidin-1-yl)ethyl)(methyl)amino)ethanol] | 340 nM
COCCNCCN1CCC(n2cc(-c3cccc(OC)c3)c3c(N)ncnc32)CC1 [7-{1-[2-(2-Methoxy-ethylamino)-ethyl]-piperidin-4-yl}-5-(3-methoxy-phenyl)-7H-pyrrolo[2,3-d]pyrimidin-4-ylamine] | 620 nM

From BindingDB's records for doi:10.1016/s0960-894x(01)00080-4 (Novartis Pharma Research, 2001)
